Results on 15 molecules are retold here after US20260297081A1, “COMPOUNDS AND METHODS OF TREATING CANCERS” (Cullgen Inc., priority 2023, published 2026).

This experiment has as its target CDK4 (Homo sapiens, UniProt P11802+Q16531). As to the kind of experiment: CDK4 percentage degradation in Calu-1 cells (Table 6). The experiment is classed as cell-based. Also on record: Cells that express cyclin D1-3 and CDK4/6 proteins were treated with heterobifunctional compounds; endogenous in cells; host or cells: Calu-1. Particulars: 16 hours; for inhibition at 0.04 µM: 40 nM; for inhibition at 0.2 µM: 200 nM. The procedure:
Calu-(cells were treated with heterobifunctional compounds at 40 nM or 200 nM for 16 hours A: protein percentage degradation […]; B: protein percentage degradation <80%, and ≥50%; C: protein percentage degradation <50%, and ≥30%; D; protein percentage degradation […]; -, data not available.
Calu-1, T47D, MCF7, HCC1428 and other cells were cultured at 37° C. with 5% CO2 in RPMI 1640 or DMEM medium supplemented with 10% fetal bovine serum. Cells were authenticated using the short tandem repeat (STR) assays. Mycoplasma test results were negative. For palbo-resistant cell model, T47D cells were cultured long-term to resistance in the presence of 1 μM Palbociclib. Cells were deemed resistant when growing in the presence of Palbo at the same rate as parental cells.
Cultured cells were washed with cold PBS once and lysed in cold RIPA buffer supplemented with protease inhibitors and phosphatase inhibitors (Beyotime Biotechnology). The solutions were then incubated at 4 ? for 30 min with gentle agitation to fully lysed cells. Cell lysates were centrifuged at 13,000 rpm for 10 min at 4 ? and pellets were discarded. Total protein concentrations in the lysates were determined following BCA assays (Beyotime Biotechnology). Cell lysates were mixed with Laemmli loading buffer and heated at 99° C. for 5 min. Proteins were resolved on SDS-PAGE and visualized using Western ECL Substrate kits on a ChemiDoc MP Imaging system (Bio-Rad). Protein bands were quantitated using the Image Lab software provided by Bio-Rad.

Chain of CDK4 (P11802 2-303 limits assumed): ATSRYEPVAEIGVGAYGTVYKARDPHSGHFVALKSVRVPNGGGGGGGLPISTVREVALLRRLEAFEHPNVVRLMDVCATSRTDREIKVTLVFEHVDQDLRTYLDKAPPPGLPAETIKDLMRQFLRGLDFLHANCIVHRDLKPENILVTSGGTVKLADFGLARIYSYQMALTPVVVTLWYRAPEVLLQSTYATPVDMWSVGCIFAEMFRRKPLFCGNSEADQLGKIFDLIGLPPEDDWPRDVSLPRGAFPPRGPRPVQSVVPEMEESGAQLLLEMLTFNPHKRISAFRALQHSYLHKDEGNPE
Chain of CDK4 (P24385 whole entry partner): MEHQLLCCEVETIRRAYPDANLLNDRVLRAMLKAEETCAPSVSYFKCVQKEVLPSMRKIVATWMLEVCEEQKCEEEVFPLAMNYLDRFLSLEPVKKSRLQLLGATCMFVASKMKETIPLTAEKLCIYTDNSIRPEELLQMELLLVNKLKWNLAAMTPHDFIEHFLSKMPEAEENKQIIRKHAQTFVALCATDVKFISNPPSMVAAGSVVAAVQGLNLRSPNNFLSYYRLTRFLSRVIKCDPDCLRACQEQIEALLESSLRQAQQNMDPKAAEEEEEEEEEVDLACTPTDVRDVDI
Chain of CDK4 (Q16531 2-1140 limits assumed): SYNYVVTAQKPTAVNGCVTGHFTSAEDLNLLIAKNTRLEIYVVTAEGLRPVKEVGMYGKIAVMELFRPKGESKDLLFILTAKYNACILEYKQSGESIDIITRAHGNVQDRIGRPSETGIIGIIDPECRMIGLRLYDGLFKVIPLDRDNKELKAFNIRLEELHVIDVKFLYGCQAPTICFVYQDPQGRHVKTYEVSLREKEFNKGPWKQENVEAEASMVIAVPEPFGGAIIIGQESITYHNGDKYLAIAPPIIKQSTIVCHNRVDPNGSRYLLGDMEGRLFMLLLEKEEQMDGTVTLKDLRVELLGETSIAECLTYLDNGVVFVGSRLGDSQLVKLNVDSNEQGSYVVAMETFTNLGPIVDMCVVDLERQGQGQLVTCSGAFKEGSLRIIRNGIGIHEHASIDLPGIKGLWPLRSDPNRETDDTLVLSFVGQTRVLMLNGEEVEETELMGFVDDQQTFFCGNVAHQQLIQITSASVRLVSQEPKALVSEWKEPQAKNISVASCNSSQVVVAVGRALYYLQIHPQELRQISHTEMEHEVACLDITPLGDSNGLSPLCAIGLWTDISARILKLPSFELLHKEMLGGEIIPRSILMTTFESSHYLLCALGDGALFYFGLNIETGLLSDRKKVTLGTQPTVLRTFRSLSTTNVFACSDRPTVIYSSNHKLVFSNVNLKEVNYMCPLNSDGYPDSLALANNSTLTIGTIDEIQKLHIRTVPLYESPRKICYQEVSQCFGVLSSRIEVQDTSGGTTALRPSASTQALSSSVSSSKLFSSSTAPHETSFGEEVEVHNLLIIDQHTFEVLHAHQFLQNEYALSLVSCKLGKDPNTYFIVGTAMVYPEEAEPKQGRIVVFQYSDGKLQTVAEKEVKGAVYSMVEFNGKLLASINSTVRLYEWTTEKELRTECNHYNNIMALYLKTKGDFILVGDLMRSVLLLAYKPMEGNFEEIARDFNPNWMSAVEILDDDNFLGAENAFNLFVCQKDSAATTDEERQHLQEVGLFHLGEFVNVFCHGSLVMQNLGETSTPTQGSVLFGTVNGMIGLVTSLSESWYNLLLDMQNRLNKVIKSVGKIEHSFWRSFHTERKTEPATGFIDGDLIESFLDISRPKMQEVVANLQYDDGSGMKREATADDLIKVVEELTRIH

The term inhibition denotes the drop in the measured response relative to a control, in per cent. Lower therefore signals a response near the control. `CNc1ccc(C(=O)Nc2ccc(N(C)C)nn2)c(NCC2CCN(C(=O)CN3CCN(c4ccc(Nc5ncc6c(C)c(C(C)=O)c(=O)n(C7CCCC7)c6n5)nc4)CC3)CC2)n1` [CPD-145, 2-(((1-(2-(4-(6-((6-acetyl-8-cyclopentyl-5-methyl-7-oxo-7,8-dihydropyrido[2,3-d]pyrimidin-2-yl)amino)pyridin-3-yl)piperazin-1-yl)acetyl)piperidin-4-yl)methyl)amino)-N-(6-(dimethylamino)pyridazin-3-yl)-6-(methylamino)nicotinamide] displayed an inhibition at 0.04 µM of less than 30% and an inhibition at 0.2 µM of 50 to 80%.
`CNc1ccc(C(=O)Nc2ccc(N)nn2)c(NCCCCCNC(=O)CN2CCN(c3ccc(Nc4ncc5c(C)c(C(C)=O)c(=O)n(C6CCCC6)c5n4)nc3)CC2)n1` [CPD-104, 2-((5-(2-(4-(6-((6-Acetyl-8-cyclopentyl-5-methyl-7-oxo-7,8-dihydropyrido[2,3-d]pyrimidin-2-yl)amino)pyridin-3-yl)piperazin-1-yl)acetamido)pentyl)amino)-N-(6-aminopyridazin-3-yl)-6-(methylamino)nicotinamide] gave an inhibition at 0.04 µM of less than 30% and an inhibition at 0.2 µM of less than 30%.
Consider `CNc1ccc(C(=O)Nc2ccc(N(C)C)nn2)c(NC2CC3(CC(NC(=O)N4CCN(c5ccc(Nc6ncc7c(C)c(C(C)=O)c(=O)n(C8CCCC8)c7n6)nc5)CC4)C3)C2)n1` (stereo not drawn) [CPD-134, 4-(6-((6-Acetyl-8-cyclopentyl-5-methyl-7-oxo-7,8-dihydropyrido[2,3-d]pyrimidin-2-yl)amino)pyridin-3-yl)-N-(6-((3-((6-(dimethylamino)pyridazin-3-yl)carbamoyl)-6-(methylamino)pyridin-2-yl)amino)spiro[3.3]heptan-2-yl)piperazine-1-carboxamide], for which the inhibition at 0.04 µM was less than 30% and the inhibition at 0.2 µM is 30 to 50%.
Taken in the same sequence, the figures for `CC(=O)c1c(C)c2cnc(Nc3ccc(N4CCN(CC(=O)NCCCCCCCNc5nc(C)ccc5C(=O)Nc5ccc(C)c(C6CC6)n5)CC4)cn3)nc2n(C2CCCC2)c1=O` [CPD-9, 2-((7-(2-(4-(6-((6-acetyl-8-cyclopentyl-5-methyl-7-oxo-7,8-dihydropyrido[2,3-d]pyrimidin-2-yl)amino)pyridin-3-yl)piperazin-1-yl)acetamido)heptyl)amino)-N-(6-cyclopropyl-5-methylpyridin-2-yl)-6-methylnicotinamide] were 50 to 80% and greater than 80%.
On the same counts, the results for `CNc1ccc(C(=O)Nc2ccc(N(C)C)nn2)c(NC2CCC3(C2)CN(C(=O)CN2CCN(c4ccc(Nc5ncc6c(C)c(C(C)=O)c(=O)n(C7CCCC7)c6n5)nc4)CC2)C3)n1` (stereo not drawn) [CPD-235, 2-((2-(2-(4-(6-((6-acetyl-8-cyclopentyl-5-methyl-7-oxo-7,8-dihydropyrido[2,3-d]pyrimidin-2-yl)amino)pyridin-3-yl)piperazin-1-yl)acetyl)-2-azaspiro[3.4]octan-6-yl)amino)-N-(6-(dimethylamino)pyridazin-3-yl)-6-(methylamino)nicotinamide] are less than 30% and 50 to 80%.
For the molecule `CNc1ccc(C(=O)Nc2ccc(N(C)C)nn2)c(NCCCCC(=O)NCCN2CCN(c3ccc(Nc4ncc5c(C)c(C(C)=O)c(=O)n(C6CCCC6)c5n4)nc3)CC2)n1` [CPD-36, 2-((5-((2-(4-(6-((6-Acetyl-8-cyclopentyl-5-methyl-7-oxo-7,8-dihydropyrido[2,3-d]pyrimidin-2-yl)amino)pyridin-3-yl)piperazin-1-yl)ethyl)amino)-5-oxopentyl)amino)-N-(6-(dimethylamino)pyridazin-3-yl)-6-(methylamino)nicotinamide], the inhibition at 0.04 µM was in the range of 30 to 50% and the inhibition at 0.2 µM was in the range of 50 to 80%.
In turn, `CNc1ccc(C(=O)Nc2ccc(N(C)C)nn2)c(NC2CC(CC(=O)N3CCN(c4ccc(Nc5ncc6c(C)c(C(C)=O)c(=O)n(C7CCCC7)c6n5)nc4)CC3)C2)n1` (stereo not drawn) [CPD-148, 2-((3-(2-(4-(6-((6-acetyl-8-cyclopentyl-5-methyl-7-oxo-7,8-dihydropyrido[2,3-d]pyrimidin-2-yl)amino)pyridin-3-yl)piperazin-1-yl)-2-oxoethyl)cyclobutyl)amino)-N-(6-(dimethylamino)pyridazin-3-yl)-6-(methylamino)nicotinamide] displayed an inhibition at 0.04 µM of 50 to 80% and an inhibition at 0.2 µM greater than 80%.
Take `CNc1ccc(C(=O)Nc2cccc(C3CC3)n2)c(NC2CC(CNC(=O)CN3CCN(c4ccc(Nc5ncc6c(C)c(C(C)=O)c(=O)n(C7CCCC7)c6n5)nc4)CC3)C2)n1` (stereo not drawn) [CPD-162, 2-((3-((2-(4-(6-((6-acetyl-8-cyclopentyl-5-methyl-7-oxo-7,8-dihydropyrido[2,3-d]pyrimidin-2-yl)amino)pyridin-3-yl)piperazin-1-yl)acetamido)methyl)cyclobutyl)amino)-N-(6-cyclopropylpyridin-2-yl)-6-(methylamino)nicotinamide]: the inhibition at 0.04 µM was in the range of 50 to 80% and the inhibition at 0.2 µM was 50 to 80%.
`[2H]C([2H])([2H])Nc1ccc(C(=O)Nc2cc(C)n(C)n2)c(NC2CCN(C(=O)CN3CCN(c4ccc(Nc5ncc6c(C)c(C(C)=O)c(=O)n(C7CCCC7)c6n5)nc4)CC3)CC2)n1` [CPD-230, 2-((1-(2-(4-(6-((6-acetyl-8-cyclopentyl-5-methyl-7-oxo-7,8-dihydropyrido[2,3-d]pyrimidin-2-yl)amino)pyridin-3-yl)piperazin-1-yl)acetyl)piperidin-4-yl)amino)-N-(1,5-dimethyl-1H-pyrazol-3-yl)-6-((methyl-d3)amino)nicotinamide]: the inhibition at 0.04 µM was less than 30% and the inhibition at 0.2 µM was 30 to 50%.
On the same counts, the results for `CNc1ccc(C(=O)Nc2cccc(C3CC3)n2)c(NC2CC(NC(=O)CN3CCN(c4ccc(Nc5ncc6c(C)c(C(C)=O)c(=O)n(C7CCCC7)c6n5)nc4)CC3)C2)n1` (stereo not drawn) [CPD-240, 2-((3-(2-(4-(6-((6-acetyl-8-cyclopentyl-5-methyl-7-oxo-7,8-dihydropyrido[2,3-d]pyrimidin-2-yl)amino)pyridin-3-yl)piperazin-1-yl)acetamido)cyclobutyl)amino)-N-(6-cyclopropylpyridin-2-yl)-6-(methylamino)nicotinamide] are 30 to 50% and 30 to 50%.
The molecule `CNc1ccc(C(=O)Nc2cc(C)[nH]n2)c(NC2CC3(CC(NC(=O)CN4CCN(c5ccc(Nc6ncc7c(C)c(C(C)=O)c(=O)n(C8CCCC8)c7n6)nc5)CC4)C3)C2)n1` (stereo not drawn) [CPD-92, 2-((6-(2-(4-(6-((6-Acetyl-8-cyclopentyl-5-methyl-7-oxo-7,8-dihydropyrido[2,3-d]pyrimidin-2-yl)amino)pyridin-3-yl)piperazin-1-yl)acetamido)spiro[3.3]heptan-2-yl)amino)-N-(5-methyl-1H-pyrazol-3-yl)-6-(methylamino)nicotinamide] displayed an inhibition at 0.04 µM of less than 30% and an inhibition at 0.2 µM of less than 30%.
Consider `CNc1ccc(C(=O)Nc2nc(C3CC3)c(C)s2)c(NCCCCCNC(=O)CN2CCN(c3ccc(Nc4ncc5c(C)c(C(C)=O)c(=O)n(C6CCCC6)c5n4)nc3)CC2)n1` [CPD-56, 2-((5-(2-(4-(6-((6-Acetyl-8-cyclopentyl-5-methyl-7-oxo-7,8-dihydropyrido[2,3-d]pyrimidin-2-yl)amino)pyridin-3-yl)piperazin-1-yl)acetamido)pentyl)amino)-N-(4-cyclopropyl-5-methylthiazol-2-yl)-6-(methylamino)nicotinamide], for which the inhibition at 0.04 µM is 50 to 80% and the inhibition at 0.2 µM is 50 to 80%.
`CNc1ccc(C(=O)Nc2nc(C3CC3)ccc2F)c(NC2CC3(CC(NC(=O)CN4CCN(c5ccc(Nc6ncc7c(C)c(C(C)=O)c(=O)n(C8CCCC8)c7n6)nc5)CC4)C3)C2)n1` (stereo not drawn) [CPD-114, 2-((6-(2-(4-(6-((6-Acetyl-8-cyclopentyl-5-methyl-7-oxo-7,8-dihydropyrido[2,3-d]pyrimidin-2-yl)amino)pyridin-3-yl)piperazin-1-yl)acetamido)spiro[3.3]heptan-2-yl)amino)-N-(6-cyclopropyl-3-fluoropyridin-2-yl)-6-(methylamino)nicotinamide] returned an inhibition at 0.04 µM of less than 30% and an inhibition at 0.2 µM of less than 30%.
`CNc1ccc(C(=O)NC2CC(N(C)C)C2)c(NCCCCCNC(=O)CN2CCN(c3ccc(Nc4ncc5c(C)c(C(C)=O)c(=O)n(C6CCCC6)c5n4)nc3)CC2)n1` (stereo not drawn) [CPD-64, 2-((5-(2-(4-(6-((6-Acetyl-8-cyclopentyl-5-methyl-7-oxo-7,8-dihydropyrido[2,3-d]pyrimidin-2-yl)amino)pyridin-3-yl)piperazin-1-yl)acetamido)pentyl)amino)-N-(3-(dimethylamino)cyclobutyl)-6-(methylamino)nicotinamide] displayed an inhibition at 0.04 µM of less than 30% and an inhibition at 0.2 µM of less than 30%.
In turn, `CC(=O)c1c(C)c2cnc(Nc3ccc(N4CCN(C(=O)NCCC5CC(Nc6cc(Cl)ccc6C(=O)Nc6ccc(C)c(C7CC7)n6)C5)CC4)cn3)nc2n(C2CCCC2)c1=O` (stereo not drawn) [CPD-256, 4-(6-((6-Acetyl-8-cyclopentyl-5-methyl-7-oxo-7,8-dihydropyrido[2,3-d]pyrimidin-2-yl)amino)pyridin-3-yl)-N-(2-(3-((5-chloro-2-((6-cyclopropyl-5-methylpyridin-2-yl)carbamoyl)phenyl)amino)cyclobutyl)ethyl)piperazine-1-carboxamide] yielded an inhibition at 0.04 µM of less than 30% and an inhibition at 0.2 µM of less than 30%.
